Data from patent US11130769B2 (Prelude Therapeutics Incorporated, priority 2018, dated 2021).

Columns and labels:
MCL-1 = MCL-1 (Homo sapiens (Human), UniProt Q07820); experiment: Cell free Mcl-1:Bim affinity assay (fluorescence polarization competition); format: binding; conditions: 15 nM MCL-1, 5 nM FITC-Bim, 1 hour at room temperature; class symbols; read-out: BIM_Ki
Description: The binding affinity of each compound was measured via a fluorescence polarization competition assay, in which the compound competes for the same binding site with the ligand, and thus leads to a dose-dependent anisotropy reduction. The tracer ligand utilized was a fluorescein isothiocyanate labelled peptide (FITC-[…]) derived from Bim (GenScript).
The assay was carried out in black half-area 96-well NBS plate (Corning), containing 15 nM of MCL-1 (BPS Bioscience), 5 nM of FITC-Bim and 3-fold serial diluted test compounds in a total volume of 50 μL of assay buffer (20 mM HEPES, 50 mM NaCl, 0.002% Tween 20, 1 mM TCEP, and 1% DMSO). The reaction plate was incubated for 1 hour at room temperature. The change of anisotropy is measured with an Envision multimode plate reader (PerkinElmer) at emission wavelength 535 nm. Fluorescence polarization was calculated in mP unit and the percentage inhibition was calculated by % inhibition=100×(mPDMSO−mP)/(mPDMSO−mPPC), in which mPDMSO is the DMSO control, and mPpc is the positive control. IC50 values were determined from a 10-point dose response curve by fitting the percent inhibition against compound concentration using the GraphPad Prism software. The inhibition constant Ki was subsequently calculated according to the Nikolovska-Coleska's equation (Anal. Biochem., 2004, 332, 261),
[formula] • where [I]50 is the concentration of the free inhibitor at 50% inhibition, [L]50 is the concentration of the free labeled ligand at 50% inhibition, [P]0 is the concentration of the free protein at 0% inhibition, and Kd is the dissociation constant of the protein-ligand complex. See Table F. Caspase 3/7 Activity Assay

H929 cells = experiment: Cell viability assay (H929 10 FBS); format: cell-based; conditions: Homo sapiens, NCI-H929, 24 hours, read-out: H929_10FBS IC50
Description: Cell Viability Assay (H929 10 FBS)
Dispense 10 μL aliquot of prepared H929 cells (1:1 ratio of cells:Trypan Blue (#1450013, Bio-Rad)) onto cell counting slide (#145-0011, Bio-Rad) and obtain cell density and cell viability using cell counter (TC20, Bio-Rad). Remove appropriate volume of resuspended cells from culture flask to accommodate 4000 cells/well @ 10 μL/well. Transfer H929 cells to 50 mL conical (#430290, Corning). Spin down at 1000 rpm for 5 min using tabletop centrifuge (SPINCHRON 15, Beckman). Discard supernatant and resuspend cell pellet in modified RPMI 1640 (#10-040-CV, Corning) cell culture media containing 10% FBS (F2422-500 ML, Sigma), sodium pyruvate (100 mM) (#25-000-CL, Corning), HEPES buffer (1 M) (#25-060-CL, Corning) and glucose (200 g/L) (A24940-01, Gibco) to a cell density of 400,000 cells/mL. Dispense 10 μL of resuspended H929 cells per well in 384-well small volume TC treated plate (#784080, Greiner Bio-one) using standard cassette (#50950372, Thermo Scientific) on Multi-drop Combi (#5840310, Thermo Scientific) in laminar flow cabinet. Dispense compounds onto plates using digital liquid dispenser (D300E, Tecan). Incubate plates in humidified tissue culture incubator @ 37° C. for 24 hours. Add 10 μL of prepared CellTiTer-Glo® detection buffer (G7570, Promega) or ATPlite 1 Step detection reagent (#6016731, Perkin Elmer) to each well of 384-well plate using small tube cassette (#24073295, Thermo Scientific) on Combi multi drop, incubate @ RT for 30-60 min. Read plates with microplate reader (PheraStar, BMG Labtech) using 384 well luminescence mode.

Chain of MCL-1 (Q07820 whole entry): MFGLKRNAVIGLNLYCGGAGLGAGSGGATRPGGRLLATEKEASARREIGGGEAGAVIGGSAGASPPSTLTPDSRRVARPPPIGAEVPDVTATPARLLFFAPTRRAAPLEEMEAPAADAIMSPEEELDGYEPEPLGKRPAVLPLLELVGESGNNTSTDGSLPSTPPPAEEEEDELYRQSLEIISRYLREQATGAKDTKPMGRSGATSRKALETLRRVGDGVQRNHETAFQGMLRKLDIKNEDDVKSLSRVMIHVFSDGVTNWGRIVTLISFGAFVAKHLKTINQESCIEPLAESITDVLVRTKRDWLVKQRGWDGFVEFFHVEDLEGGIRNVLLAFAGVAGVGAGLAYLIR

Row | SMILES | Ki (MCL-1) [nM] | IC50 (H929 cells) [nM]
1 | COC[C@@H]1CCCN1C(=O)O[C@H]1/C=C/COC(C)(C)C(=O)NS(=O)(=O)c2ccc3c(c2)N(C[C@@H]2CC[C@H]21)C[C@@]1(CCCc2cc(Cl)ccc21)CO3 [Example 160, [(3R,6R,7S,8E,22S)-6′-Chloro-12,12-dimethyl-13,15,15-trioxo-spiro[11,20-dioxa-15-thia-1,14-diazatetracyclo[14.7.2.03,6.019,24]pentacosa-8,16,18,24-tetraene-22,1′-tetralin]-7-yl] (2S)-2-(methoxymethyl)pyrrolidine-1-carboxylate] | < 1 | < 500
2 | CC1(C)OC/C=C/[C@H](OCC(=O)N2C[C@@H](F)[C@H](F)C2)[C@@H]2CC[C@H]2CN2C[C@@]3(CCCc4cc(Cl)ccc43)COc3ccc(cc32)S(=O)(=O)NC1=O [Example 290, (3R,6R,7S,8E,22S)-6′-Chloro-7-[2-[(3R,4R)-3,4-difluoropyrrolidin-1-yl]-2-oxo-ethoxy]-12,12-dimethyl-15,15-dioxo-spiro[11,20-dioxa-15-thia-1,14-diazatetracyclo[14.7.2.03,6.019,24]pentacosa-8,16,18,24-tetraene-22,1′-tetralin]-13-one] | < 1 | < 500
3 | C[C@@H]1NC(=O)COC[C@@H]2CC[C@H]2CN2C[C@@]3(CCCc4cc(Cl)ccc43)COc3ccc(cc32)S(=O)(=O)NC1=O [Example 197, (3R,6R,12S,22S)-6′-Chloro-12-methyl-15,15-dioxo-spiro[8,20-dioxa-15-thia-1,11,14-triazatetracyclo[14.7.2.0˜3,6.0˜19,24]pentacosa-16,18,24-triene-22,1′-tetralin]-10,13-dione] | 1 to 100 | > 1000
4 | CN1C/C=C/[C@H](OC(=O)N[C@H]2CCOC2)[C@@H]2CC[C@H]2CN2C[C@@]3(CCCc4cc(Cl)ccc43)COc3ccc(cc32)S(=O)(=O)NC(=O)C12CCC2 [Example 295, [(3R,6R,7S,8E,22S)-6′-Chloro-11-methyl-12,12-(1,3-propylene)-13,15,15-trioxo-spiro[20-oxa-15-thia-1,11,14-triazatetracyclo[14.7.2.03,6.019,24]pentacosa-8,16,18,24-tetraene-22,1′-tetralin]-7-yl] N-[(3S)-tetrahydrofuran-3-yl]carbamate] | 1 to 100 | > 1000
5 | CN1C/C=C/[C@H](OCCN2CCC(F)(F)C2)[C@@H]2CC[C@H]2CN2C[C@@]3(CCCc4cc(Cl)ccc43)COc3ccc(cc32)S(=O)(=O)NC(=O)C1(C)C [Example 288, (3R,6R,7S,8E,22S)-6′-Chloro-7-[2-(3,3-difluoropyrrolidin-1-yl)ethoxy]-11,12,12-trimethyl-15,15-dioxo-spiro[20-oxa-15-thia-1,11,14-triazatetracyclo[14.7.2.03,6.019,24]pentacosa-8,16,18,24-tetraene-22,1′-tetralin]-13-one] | 1 to 100 | > 1000

Now from value to compound:

Row | Ki (MCL-1) [nM] | IC50 (H929 cells) [nM] | SMILES
6 | < 1 | < 500 | CC1(C)OC/C=C/[C@H](OC(=O)N2CC(O)C2)[C@@H]2CC[C@H]2CN2C[C@@]3(CCCc4cc(Cl)ccc43)COc3ccc(cc32)S(=O)(=O)NC1=O [Example 153]
7 | < 1 | > 1000 | CO[C@@H]1/C=C/CCC(=O)NS(=O)(=O)c2ccc3c(c2)N(C[C@@H]2CC[C@H]21)C[C@@]1(CCCc2cc(Cl)ccc21)CO3 [Example 74, (3R,6R,7R,8E,21S)-6′-Chloro-7-methoxy-14,14-dioxo-spiro[19-oxa-14-thia-1,13-diazatetracyclo[13.7.2.03,6.018,23]tetracosa-8,15,17,23-tetraene-21,1′-tetralin]-12-one]
8 | < 1 | < 500 | CC1(C)OC/C=C/[C@H](OC(=O)NC2CCC2)[C@@H]2CC[C@H]2CN2C[C@@]3(CCCc4cc(Cl)ccc43)COc3ccc(cc32)S(=O)(=O)NC1=O [Example 184, [(3R,6R,7S,8E,22S)-6′-Chloro-12,12-dimethyl-13,15,15-trioxo-spiro[11,20-dioxa-15-thia-1,14-diazatetracyclo[14.7.2.03,6.019,24]pentacosa-8,16,18,24-tetraene-22,1′-tetralin]-7-yl] N-cyclobutylcarbamate]
